Test results taken from PMC3875168 (Journal of medicinal chemistry, 2013).

Key:
CD45 = target: T1, CD45 (Homo sapiens, UniProt P08575); experiment: Selectivity assay, pNPP substrate; type: biochemical; conditions: relative to STEP Ki
T1 sequence (P08575 26-1306): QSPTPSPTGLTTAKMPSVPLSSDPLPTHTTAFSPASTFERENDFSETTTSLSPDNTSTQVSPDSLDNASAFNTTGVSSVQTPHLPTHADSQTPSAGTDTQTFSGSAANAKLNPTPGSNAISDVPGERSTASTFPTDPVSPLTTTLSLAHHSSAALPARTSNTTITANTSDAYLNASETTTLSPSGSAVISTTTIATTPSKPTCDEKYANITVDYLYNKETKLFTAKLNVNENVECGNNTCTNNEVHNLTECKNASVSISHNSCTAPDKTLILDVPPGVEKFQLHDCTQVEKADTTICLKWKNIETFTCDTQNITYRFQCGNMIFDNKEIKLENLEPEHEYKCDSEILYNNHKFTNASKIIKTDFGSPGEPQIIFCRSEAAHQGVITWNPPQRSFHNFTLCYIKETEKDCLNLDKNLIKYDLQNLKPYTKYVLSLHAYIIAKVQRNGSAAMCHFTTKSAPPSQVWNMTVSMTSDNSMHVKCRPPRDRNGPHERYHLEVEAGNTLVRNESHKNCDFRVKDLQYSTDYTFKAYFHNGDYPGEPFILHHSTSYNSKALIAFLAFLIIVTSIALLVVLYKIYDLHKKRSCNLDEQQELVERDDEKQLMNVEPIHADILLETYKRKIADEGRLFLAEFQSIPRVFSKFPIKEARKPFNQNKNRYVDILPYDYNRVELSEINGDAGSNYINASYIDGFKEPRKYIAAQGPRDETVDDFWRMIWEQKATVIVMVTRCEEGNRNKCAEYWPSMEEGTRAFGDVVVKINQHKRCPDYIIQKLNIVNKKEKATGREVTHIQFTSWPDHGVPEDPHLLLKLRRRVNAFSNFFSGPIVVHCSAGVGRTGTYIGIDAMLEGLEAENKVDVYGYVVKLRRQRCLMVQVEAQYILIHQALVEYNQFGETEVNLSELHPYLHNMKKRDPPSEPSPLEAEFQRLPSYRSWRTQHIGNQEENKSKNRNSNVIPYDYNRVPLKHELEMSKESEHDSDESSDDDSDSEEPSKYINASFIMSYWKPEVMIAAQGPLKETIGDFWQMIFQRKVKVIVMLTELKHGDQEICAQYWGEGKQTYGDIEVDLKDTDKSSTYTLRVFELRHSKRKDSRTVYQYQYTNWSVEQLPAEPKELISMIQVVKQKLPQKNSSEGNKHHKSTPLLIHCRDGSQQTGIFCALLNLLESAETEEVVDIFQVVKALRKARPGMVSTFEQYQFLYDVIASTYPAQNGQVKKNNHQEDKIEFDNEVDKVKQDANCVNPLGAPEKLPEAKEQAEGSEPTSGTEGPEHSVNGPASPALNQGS

LAR = LAR (Homo sapiens, UniProt P10586); experiment: Selectivity assay, pNPP substrate; type: biochemical; conditions: relative to STEP Ki
Sequence of LAR (P10586 30-1907): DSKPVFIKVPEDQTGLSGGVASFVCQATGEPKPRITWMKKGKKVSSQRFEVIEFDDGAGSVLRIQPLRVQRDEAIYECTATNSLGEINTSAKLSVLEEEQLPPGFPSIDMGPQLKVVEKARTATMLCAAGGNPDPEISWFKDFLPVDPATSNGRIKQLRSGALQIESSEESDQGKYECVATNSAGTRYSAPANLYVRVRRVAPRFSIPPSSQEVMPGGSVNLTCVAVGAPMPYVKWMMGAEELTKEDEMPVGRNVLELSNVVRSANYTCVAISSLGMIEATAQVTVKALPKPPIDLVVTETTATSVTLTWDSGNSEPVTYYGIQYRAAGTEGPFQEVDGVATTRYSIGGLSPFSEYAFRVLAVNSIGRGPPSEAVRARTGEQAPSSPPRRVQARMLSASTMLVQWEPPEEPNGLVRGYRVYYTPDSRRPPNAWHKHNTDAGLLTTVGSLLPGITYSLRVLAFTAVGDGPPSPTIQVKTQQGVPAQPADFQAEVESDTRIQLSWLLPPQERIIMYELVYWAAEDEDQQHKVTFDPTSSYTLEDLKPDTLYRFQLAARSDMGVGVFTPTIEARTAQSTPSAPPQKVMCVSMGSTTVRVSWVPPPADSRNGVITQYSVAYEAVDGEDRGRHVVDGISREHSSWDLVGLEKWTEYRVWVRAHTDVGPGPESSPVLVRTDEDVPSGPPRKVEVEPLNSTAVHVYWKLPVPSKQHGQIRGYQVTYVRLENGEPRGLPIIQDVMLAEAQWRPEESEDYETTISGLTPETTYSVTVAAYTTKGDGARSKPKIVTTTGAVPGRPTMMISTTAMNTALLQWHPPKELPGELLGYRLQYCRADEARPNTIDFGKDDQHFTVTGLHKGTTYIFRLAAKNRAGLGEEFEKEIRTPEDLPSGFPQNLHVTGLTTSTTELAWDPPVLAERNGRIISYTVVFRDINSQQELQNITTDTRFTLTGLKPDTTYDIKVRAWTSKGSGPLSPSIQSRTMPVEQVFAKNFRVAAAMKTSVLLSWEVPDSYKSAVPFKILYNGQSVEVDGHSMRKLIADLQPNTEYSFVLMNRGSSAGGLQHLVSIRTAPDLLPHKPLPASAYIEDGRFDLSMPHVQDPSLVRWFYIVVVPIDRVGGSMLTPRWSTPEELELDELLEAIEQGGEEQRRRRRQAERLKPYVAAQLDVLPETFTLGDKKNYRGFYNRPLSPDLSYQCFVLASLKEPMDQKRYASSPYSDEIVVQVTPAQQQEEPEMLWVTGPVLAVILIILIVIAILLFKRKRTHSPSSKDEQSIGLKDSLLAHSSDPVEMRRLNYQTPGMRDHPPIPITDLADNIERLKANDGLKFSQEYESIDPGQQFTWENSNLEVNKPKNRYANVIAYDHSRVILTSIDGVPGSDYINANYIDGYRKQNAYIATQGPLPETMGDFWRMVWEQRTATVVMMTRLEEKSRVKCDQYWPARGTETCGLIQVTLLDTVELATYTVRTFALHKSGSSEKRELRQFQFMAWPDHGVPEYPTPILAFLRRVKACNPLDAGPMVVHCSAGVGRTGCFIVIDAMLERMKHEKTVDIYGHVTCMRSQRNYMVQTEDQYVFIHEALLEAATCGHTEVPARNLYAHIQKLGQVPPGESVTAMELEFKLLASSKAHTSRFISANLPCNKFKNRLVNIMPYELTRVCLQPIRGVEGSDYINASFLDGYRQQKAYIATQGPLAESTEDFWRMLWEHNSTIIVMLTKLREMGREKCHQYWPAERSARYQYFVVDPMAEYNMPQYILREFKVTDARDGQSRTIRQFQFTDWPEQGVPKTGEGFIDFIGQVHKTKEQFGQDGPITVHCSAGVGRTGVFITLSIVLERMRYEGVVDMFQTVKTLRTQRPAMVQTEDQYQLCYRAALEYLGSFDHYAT

[1] = Solubility of the inhibitor; type: physicochemical; conditions: hydroxyl group at the benzylic position, compared with 12p
STEP = target: T2, STEP (Rattus norvegicus, UniProt P35234); experiment: STEP inhibition in neuronal cultures, Western blotting of phospho-substrates; type: cell-based; conditions: rat cortical neurons, 0.1, 1 or 10 µM for 1 h
T2 sequence (P35234 53-369 limits assumed): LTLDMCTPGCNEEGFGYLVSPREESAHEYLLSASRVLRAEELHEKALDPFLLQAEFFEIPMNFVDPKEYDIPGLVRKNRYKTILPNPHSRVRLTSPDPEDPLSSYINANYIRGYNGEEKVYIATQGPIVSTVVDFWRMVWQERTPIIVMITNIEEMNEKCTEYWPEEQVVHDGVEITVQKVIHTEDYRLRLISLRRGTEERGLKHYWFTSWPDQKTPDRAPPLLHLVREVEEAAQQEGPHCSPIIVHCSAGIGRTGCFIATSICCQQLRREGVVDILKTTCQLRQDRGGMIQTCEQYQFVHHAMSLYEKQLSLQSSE

BBB PAMPA = type: in vitro ADME; conditions: PAMPA model system; data in SI
MKP5 = target: T3, MKP5 (Homo sapiens, UniProt Q9Y6W6); experiment: Selectivity assay, DiFMUP substrate; type: biochemical; conditions: relative to STEP Ki
T3 sequence (Q9Y6W6 1-482): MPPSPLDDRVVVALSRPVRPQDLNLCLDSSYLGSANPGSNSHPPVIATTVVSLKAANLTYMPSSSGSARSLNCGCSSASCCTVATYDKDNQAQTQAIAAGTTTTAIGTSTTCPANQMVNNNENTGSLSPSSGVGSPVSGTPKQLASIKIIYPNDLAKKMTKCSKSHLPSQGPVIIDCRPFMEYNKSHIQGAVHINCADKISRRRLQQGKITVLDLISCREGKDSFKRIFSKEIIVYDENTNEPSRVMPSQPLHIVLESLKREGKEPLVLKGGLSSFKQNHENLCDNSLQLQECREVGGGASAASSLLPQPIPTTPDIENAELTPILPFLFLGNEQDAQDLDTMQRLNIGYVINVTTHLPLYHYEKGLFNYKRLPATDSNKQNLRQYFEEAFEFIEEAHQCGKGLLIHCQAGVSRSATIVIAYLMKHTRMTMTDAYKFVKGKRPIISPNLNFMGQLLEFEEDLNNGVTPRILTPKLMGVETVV

**Q.** For `O=P(O)(O)C(F)(F)c1cccc(-c2cccc(C3CCCCC3)c2O)c1` [11m, ((3'-Cyclohexyl-2'-hydroxy-[1,1'-biphenyl]-3-yl)difluoromethyl)phosphonic Acid], which “selectivity CD45” value (CD45) is on record?
**A.** >25

**Q.** And the “selectivity LAR” value (LAR)?
**A.** >45

**Q.** With `O=P(O)(O)C(F)(F)c1ccc(-c2cccc(C(O)c3ccc(Cl)c(Cl)c3)c2)cc1` (stereo not shown) [12q, ((3'-((3,4-Dichlorophenyl)(hydroxy)methyl)-[1,1'-biphenyl]-4-yl)difluoromethyl)phosphonic Acid] as the compound, how does the “solubility of the inhibitor” value [1] read?
**A.** increased the solubility

**Q.** Which “phosphorylation levels of STEP substrates GluN2B, Pyk2 and ERK1/2” value (STEP) does the source give for `O=P(O)(O)[C@H](O)c1ccc(-c2cccc([C@@H](O)c3ccc(Cl)c(Cl)c3)c2)cc1` [12s, ((S)-(3'-((R)-(3,4-dichlorophenyl)(hydroxy)methyl)-[1,1'-biphenyl]-4-yl)(hydroxy)methyl)phosphonic Acid] here?
**A.** Clear increases in the phosphorylation levels

**Q.** What about the “ability to passively permeate the blood-brain barrier” value (BBB PAMPA) of the same compound?
**A.** did not possess the ability to passively cross the BBB

**Q.** With `O=P(O)(O)[C@H](O)c1ccc(-c2cccc([C@H](O)c3ccc(Cl)c(Cl)c3)c2)cc1` [12t, ((S)-(3'-((S)-(3,4-dichlorophenyl)(hydroxy)methyl)-[1,1'-biphenyl]-4-yl)(hydroxy)methyl)phosphonic Acid] as the compound, how does the “selectivity MKP5” value (MKP5) read?
**A.** >65

**Q.** And the “phosphorylation levels of STEP substrates GluN2B, Pyk2 and ERK1/2” value (STEP)?
**A.** more modest effects
